Assay results from patent EP0394122A2, “Use of tetracyclines to manufacture a medicament for the treatment and prevention of AIDS” (priority 1989, dated 1990).

Tests used:
Format in all cases: cell-based
virus HIV (LAV-1-BRU) = test: Protection against the cytopathogenic effect of HIV in infected CEM clone 13 cells (MTT viability)
Description: Le test est réalisé sur la lignée lymphoblastoïde CEM clone 13. Dans une microplaque de 96 puits on dépose 25 µl/puits d'une solution de produit à tester ou de tampon phosphate isotonique (TPI) dans le cas des contrôles. Les produits sont étudiés à différentes concentrations (souvent 8), à raison de 4 puits par concentration. On ajoute alors 125 µl d'une suspension de cellules CEM dans le milieu RPMI contenant 10 % de sérum de veau foetal, 40 U/ml de pénicilline, 40 µg/ml de streptomycine et 5 µg/ml de polybrène (3500 cellules par puits) et les microplaques sont incubées une heure à 37°C, sous une atmosphère contenant 5 % de gaz carbonique. Pour chaque concentration, l'essai est partagé en 2 parties : une partie sur cellules infectées, pour la détermination de l'activité antivirale et l'autre partie sur cellules non infectées, pour déterminer la cytotoxicité des produits. On infecte alors la première série avec HIV (100 µl par puit d'une suspension de virus LAV-1-BRU contenant 200-300 TCID50) tandis que l'autre série reçoit 100 µl de milieu RPMI tel que défini précédemment. Au bout de 7 jours d'incubation, 175 µl de surnageant sont prélevés et rejetés. La viabilité cellulaire est déterminée selon une modification de la technique décrite par R. Pauwels et coll., J. Virol. Meth., 20, 309-321 (1988).
Les puits, contenant encore les cellules (infectées ou non infectées), reçoivent 10 µl d'une solution de MTT (méthylthiazoletétrazolium) à 5 mg/ml dans du tampon phosphate isotonique. Pendant une période d'incubation de 4 heures, le MTT est converti en un sel de formazan (bleu) à l'intérieur des cellules vivantes et proportionnellement à leur nombre, alors que rien n'apparaît dans les puits ne contenant plus que des cellules mortes. On ajoute alors 120 µl d'isopropanol (contenant 0,04 mole/l d'acide chlorhydrique) et les microplaques sont agitées jusqu'à la solubilisation du bleu de formazan. L'absorption à 540 nm est lue avec un lecteur automatique de réactions ELISA en microplaques.
Pour les essais de plus longue durée, on procède comme décrit précédemment jusqu'au jour 7. A ce moment, 100 µl de cellules sont prélevés pour mesurer la proportion de cellules vivantes et le restant est remis en culture avec du milieu frais contenant les produits aux mêmes concentrations. Cette opération est répétée tous les 4 jours.

[1] = tested on: virus HIV (souche LAV-BRU); test: Inhibition of the cytopathogenic effect of HIV in infected human lymphocyte culture (MTT viability); conditions: 21 days after infection, human lymphocytes
Description: (§1) La source des leucocytes humains est un stock congelé en N₂ liquide (100 x 10⁶ cellules/ampoule) de leucocytes obtenus sur cytaphérèse d'individus (donneurs) sains. Au moment de l'essai, les cellules sont décongelées, mises en suspension dans 80 % de sérum de veau foetal (SVF) et 20 % de diméthylsulfoxyde et centrifugées à 1000 rpm (10 minutes). Le culot est mis en suspension dans un milieu RPMI [contenant 10 % Lymphocult (Interleukine 2 en provenance de Biotest Diagnostic), 10 % de SVF, pénicilline et streptomycine, respectivement 40 U/ml et 40 µg/ml], à raison de 1 x 10⁶ cellules/ml. Habituellement, on utilise un flacon de culture cellulaire contenant 40 à 60 ml de cette suspension cellulaire. Les cellules sont incubées 4 jours en présence de phytohémagglutinine PHA (0,1 % DIFCO), à 37°C sous une atmosphère contenant 95 % d'air et 5 % de gaz carbonioue. Les cellules sont alors centrifugées, lavées une fois dans du milieu frais (ci-dessus) et remises en suspension dans le même milieu à 1 x 10⁶ cellules/ml [(RPMI 10 % de SVF, 10 % de Lymphocult-antibiotiques ci-dessus) mais contenant 10 U/ml d'anticorps anti-interferon (IFN α) 5 µg/ml de prolybrène.
(§2) 200 µl de cette suspension cellulaire (200.000 cellules) sont déposés dans des puits d'une microplaque de cultures (à 96 puits). A chaque puits, on ajoute 25 µl du produit à tester [dilué 10 fois dans du tampon phosphate isotonique (TPI)] ou 25 µl du solvant TPI pour le contrôle. L'essai est fait en 2 séries : sur cellules infectées (pour déterminer l'activité antivirale) et sur cellules non infectées pour déterminer l'activité antiproliférative (cytotoxicité). On infecte alors avec 25 µl du virus HIV (souche LAV-BRU), alors que l'autre série reçoit (par puits) 25 µl du milieu (ci-dessus). Les cultures sont incubées 7 jours à 37°C (95 % d'air, 5 % de CO₂). 200 µl de surnageant sont alors prélevés, rejetés ou utilisés pour la détermination de l'activité transcriptase inverse. Les cellules du fond (sous 50 µl) sont alors soit testées pour leur viabilité (test MTT), soit additionnées de 200 µl de milieu frais (ci-dessus). Dans ce dernier cas, l'incubation est prolongée pendant encore 7 jours (test au jour 14). L'opération peut être répétée une semaine après (test au jour 21).

lymphocytes humains = test: Antiproliferative activity (cytotoxicity) on non-infected human lymphocytes (MTT viability); conditions: day 21
Description: as §1, §2

Molecule	Cellules infectées Densité optique (virus HIV (LAV-1-BRU); 0,01 µg/ml, JOUR 14)	Cellules infectées Densité optique (virus HIV (LAV-1-BRU); 0,01 µg/ml, JOUR 18)	Cellules infectées Densité optique (virus HIV (LAV-1-BRU); 0,01 µg/ml, day 7)	Cellules infectées Densité optique (virus HIV (LAV-1-BRU); 0,04 µg/ml, JOUR 14)	Cellules infectées Densité optique (virus HIV (LAV-1-BRU); 0,04 µg/ml, JOUR 18)	Cellules infectées Densité optique (virus HIV (LAV-1-BRU); 0,04 µg/ml, day 7)	Cellules infectées Densité optique (virus HIV (LAV-1-BRU); 0,12 µg/ml, JOUR 14)	Cellules infectées Densité optique (virus HIV (LAV-1-BRU); 0,12 µg/ml, JOUR 18)	Cellules infectées Densité optique (virus HIV (LAV-1-BRU); 0,12 µg/ml, day 7)	Cellules infectées Densité optique (virus HIV (LAV-1-BRU); 0,37 µg/ml, JOUR 14)	Cellules infectées Densité optique (virus HIV (LAV-1-BRU); 0,37 µg/ml, JOUR 18)	Cellules infectées Densité optique (virus HIV (LAV-1-BRU); 0,37 µg/ml, day 7)	Cellules infectées Densité optique (virus HIV (LAV-1-BRU); 10 µg/ml, JOUR 14)	Cellules infectées Densité optique (virus HIV (LAV-1-BRU); 10 µg/ml, JOUR 18)	Cellules infectées Densité optique (virus HIV (LAV-1-BRU); 10 µg/ml, day 7)	Cellules infectées Densité optique (virus HIV (LAV-1-BRU); 30 µg/ml, day 7)	Cellules infectées Densité optique (virus HIV (LAV-1-BRU); 1,11 µg/ml, JOUR 14)	Cellules infectées Densité optique (virus HIV (LAV-1-BRU); 1,11 µg/ml, JOUR 18)	Cellules infectées Densité optique (virus HIV (LAV-1-BRU); 1,11 µg/ml, day 7)	Cellules infectées Densité optique (virus HIV (LAV-1-BRU); 3,33 µg/ml, JOUR 14)	also measured
CN(C)c1ccc(O)c2c1C[C@H]1C[C@H]3[C@H](N(C)C)C(O)=C(C(N)=O)C(=O)[C@@]3(O)C(O)=C1C2=O [Exemple 5, minocycline]	0,300	0,250	0,660	0,450	0,250	0,720	0,620	0,450	0,890	1,250	1,000	1,210	0,100	0,100	0,450	0,320	1,250	0,950	1,510	0,400	Cellules infectées Densité optique (virus HIV (LAV-1-BRU); 3,33 µg/ml, JOUR 18): 0,350; Cellules infectées Densité optique (virus HIV (LAV-1-BRU); 3,33 µg/ml, day 7): 1,340; Cellules infectées Densité optique ([1]; 0,04 µg/ml): 0,530; Cellules infectées Densité optique ([1]; 0,12 µg/ml): 0,435; Cellules infectées Densité optique ([1]; 0,37 µg/ml): 0,640; Cellules infectées Densité optique ([1]; 10 µg/ml): 0,540; Cellules infectées Densité optique ([1]; 1,11 µg/ml): 0,835; Cellules infectées Densité optique ([1]; 3,33 µg/ml): 0,750; Cellules non infectées Densité optique (lymphocytes humains; 0,04 µg/ml): 0,836; Cellules non infectées Densité optique (lymphocytes humains; 0,12 µg/ml): 0,775; Cellules non infectées Densité optique (lymphocytes humains; 0,37 µg/ml): 0,850; Cellules non infectées Densité optique (lymphocytes humains; 10 µg/ml): 0,833; Cellules non infectées Densité optique (lymphocytes humains; 1,11 µg/ml): 0,980; Cellules non infectées Densité optique (lymphocytes humains; 3,33 µg/ml): 0,900
doxycycline [Exemple 2]	0,250	0,240	0,820	0,300	0,275	0,785	0,450	0,250	0,720	0,550	0,300	1,000	0,100	0,100	0,660	0,200	0,880	0,700	1,240	0,750	Cellules infectées Densité optique (virus HIV (LAV-1-BRU); 3,33 µg/ml, JOUR 18): 0,750; Cellules infectées Densité optique (virus HIV (LAV-1-BRU); 3,33 µg/ml, day 7): 1,370; Cellules infectées Densité optique ([1]; 0,04 µg/ml): 0,530; Cellules infectées Densité optique ([1]; 0,12 µg/ml): 0,590; Cellules infectées Densité optique ([1]; 0,37 µg/ml): 0,550; Cellules infectées Densité optique ([1]; 10 µg/ml): 0,125; Cellules infectées Densité optique ([1]; 1,11 µg/ml): 0,773; Cellules non infectées Densité optique (lymphocytes humains; 0,04 µg/ml): 0,775; Cellules non infectées Densité optique (lymphocytes humains; 0,12 µg/ml): 0,765; Cellules non infectées Densité optique (lymphocytes humains; 0,37 µg/ml): 0,853; Cellules non infectées Densité optique (lymphocytes humains; 10 µg/ml): 0,103; Cellules non infectées Densité optique (lymphocytes humains; 1,11 µg/ml): 0,835; Cellules non infectées Densité optique (lymphocytes humains; 3,33 µg/ml): 0,670
